Data published in ChEMBL document CHEMBL1147492, “Small molecule biaryl FSH receptor agonists. Part 1: Lead discovery via encoded combinatorial synthesis” (Bioorg Med Chem Lett, 2004).

These molecules were tested against T1, Follicle-stimulating hormone receptor (Homo sapiens, UniProt P23945) (assay: Agonistic activity against Follicle stimulating hormone receptor expressed in chinese hamster ovary cells(CHO)).
T1 sequence (P23945 whole entry): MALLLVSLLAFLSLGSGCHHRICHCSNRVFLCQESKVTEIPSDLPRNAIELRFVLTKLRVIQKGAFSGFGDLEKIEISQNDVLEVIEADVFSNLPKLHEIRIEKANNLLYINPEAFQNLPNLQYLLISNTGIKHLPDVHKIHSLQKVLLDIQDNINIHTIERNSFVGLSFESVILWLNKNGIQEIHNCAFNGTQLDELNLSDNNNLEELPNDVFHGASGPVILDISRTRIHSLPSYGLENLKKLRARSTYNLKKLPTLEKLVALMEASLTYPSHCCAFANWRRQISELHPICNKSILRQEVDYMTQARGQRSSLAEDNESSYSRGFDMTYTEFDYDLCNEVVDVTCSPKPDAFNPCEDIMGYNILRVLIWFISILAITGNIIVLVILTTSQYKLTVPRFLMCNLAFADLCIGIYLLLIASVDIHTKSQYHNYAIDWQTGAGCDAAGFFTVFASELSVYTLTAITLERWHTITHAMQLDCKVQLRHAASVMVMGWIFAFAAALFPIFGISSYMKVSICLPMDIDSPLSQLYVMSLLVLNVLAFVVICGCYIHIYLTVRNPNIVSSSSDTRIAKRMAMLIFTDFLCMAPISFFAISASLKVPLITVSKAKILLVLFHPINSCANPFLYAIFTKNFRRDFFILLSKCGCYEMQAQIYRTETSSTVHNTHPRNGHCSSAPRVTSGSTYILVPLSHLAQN
Type: functional, cell-based

| SMILES | EC50 [nM] |
| --- | --- |
| CCCCN(Cc1cccc(-c2ccc(C(=O)NC3CCCCN(CC(=O)NCCc4ccc(Cl)cc4)C3=O)cc2)c1)C(=O)NC (stereo not given) | 260 |
| CCCCCCNC(=O)CN1C(=O)C(Cc2ccc(-c3ccc(CN(CCCC)C(=O)NC)cc3)cc2)N(C)C1=O (stereo not given) | 2500 |
| CCCCCCNC(=O)CN1CC(=O)N(C)[C@@H](Cc2ccc(-c3cc(OC)c(OC)c(OC)c3)cc2)C1=O | 3000 |
| CCCCOC(=O)N(CC(=O)NCC1CC1)Cc1ccc(-c2ccccc2CN(CCCC)C(C)=O)cc1 | 3900 |
| CCCCCNC(=O)CN1CC(=O)N(C)[C@@H](Cc2ccc(-c3cccc(CN(CCCC)C(=O)NC)c3)cc2)C1=O | 1700 |
